Results from publication PMC9657394, “Purification and Characterization of Bot33: A Non-Toxic Peptide from the Venom of Buthus occitanus tunetanus Scorpion” (Molecules, 2022).

Experiments:
hKv1.3 = assay: Two-electrode voltage-clamp, Kv1.3 expressed in Xenopus laevis oocytes; format: cell-based, mammalian; details: 1 µM, 250-ms depolarization to 0 mV from −90 mV, pH 7.4, 18–22 °C
Excerpt: (§1) For the expression of Kv channels (mammalian rKv1.1, rKv1.2, hKv1.3, rKv1.4, rKv1.5, rKv1.6, and Drosophila Shaker IR) in Xenopus laevis oocytes, the linearized plasmids were transcribed using the T7 or SP6 mMESSAGE-mMACHINE transcription kit (Ambion, Carlsbad, CA, USA). The harvesting of stage V–VI oocytes from anesthetized female Xenopus laevis frog was previously described in compliance with the regulations of the European Union (EU) concerning the welfare of laboratory animals as declared in Directive 2010/63/EU. The use of X. laevis oocytes was approved by the Animal Ethics Committee of the KU Leuven with the license number P186/2019. Oocytes were injected with 50 nl of cRNA at a concentration of 1 ng/nl using a microinjector (Drummond Scientific, Broomall, PA, USA). […]
(§2) Two-electrode voltage-clamp recordings were performed at room temperature (18–22 °C) using a Geneclamp 500 amplifier (Molecular Devices, Downingtown, PA, USA) controlled by a pClamp data acquisition system (Axon Instruments, Union City, CA, USA). Whole-cell currents from oocytes were recorded 1–4 days after injection. […] All data were analyzed using pClamp Clampfit 10.1 (Molecular Devices, Downingtown, PA, USA) and Origin 7.5 software (Originlab, Northampton, MA, USA).

Shaker IR = assay: Two-electrode voltage-clamp, Shaker IR expressed in Xenopus laevis oocytes; format: cell-based, Drosophila; details: 1 µM, 250-ms depolarization to 0 mV from −90 mV, pH 7.4, 18–22 °C
Excerpt: as §1, §2

mice = tested on: mice; set-up: method as in PMID 1730708; details: ref [22]; cited from earlier work

| Substance | effect on Kv1.3 current (hKv1.3) | effect on Shaker IR current (Shaker IR) | LD50 (mice) |
| --- | --- | --- | --- |
| ChTx: control toxin tested on Kv1.3 and Shaker IR | completely inhibited the current | completely inhibited the current |  |
| KTX: toxin with LD50 ≈ 24 ng/20 g mice |  |  | ≈ 24 ng/20 g mice |
